Read-outs that look alike come from different tables or passages of the source.
Experiments:
[1] = test system: TFEB; assay: TFEB translocation assay (TFEB reporter in U2OS cells, imaging); assay type: cell-based; details: Homo sapiens; U2OS cell line with TFEB reporter, 2 hours incubation, nucleus to cytoplasm ratio, normalized to Torin-1; read-out: TFEB Translocation pEC50 (converted)
Outline: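 U2OS cells stably expressing mRFP-fused TFEB reporter, switched to Opti-MEM then treated 2 h at 37 °C with compounds (0.5% DMSO, 0.015% Tween 80). Hoechst-stained, PFA-fixed cells imaged at 20×; nucleus/cytoplasm intensity ratio per well normalized to Torin-1 (100%) and DMSO (0%).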

[2] = biological target: T1, TRPML1 (Homo sapiens, UniProt Q9GZU1); assay: Cellular TRPML1 assay (FLIPR, GCaMP6f calcium read-out); assay type: cell-based
T1 construct: expressed in transfected cells; host or cells: HEK T-REx cells stably expressing GCaMP6f and TRPML1
Outline: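 HEK T-REx cells stably expressing TRPML1 and GCaMP6f, seeded 24 h before in Optimem + 0.5% FBS. After ~10 min pre-incubation at room temperature, compounds in Ca2+-free Tyrode's buffer were injected on FLIPR Tetra (final DMSO 0.5%). Calcium fluorescence kinetics followed for 300 s.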

[3] = HEKT-REx/GCaMP6f/TRPML1 cells, FLIPR TETRA, kinetic response over 300 seconds, read-out: TRPML1 FLIPR pEC50 (converted)

T1 sequence (Q9GZU1 whole entry): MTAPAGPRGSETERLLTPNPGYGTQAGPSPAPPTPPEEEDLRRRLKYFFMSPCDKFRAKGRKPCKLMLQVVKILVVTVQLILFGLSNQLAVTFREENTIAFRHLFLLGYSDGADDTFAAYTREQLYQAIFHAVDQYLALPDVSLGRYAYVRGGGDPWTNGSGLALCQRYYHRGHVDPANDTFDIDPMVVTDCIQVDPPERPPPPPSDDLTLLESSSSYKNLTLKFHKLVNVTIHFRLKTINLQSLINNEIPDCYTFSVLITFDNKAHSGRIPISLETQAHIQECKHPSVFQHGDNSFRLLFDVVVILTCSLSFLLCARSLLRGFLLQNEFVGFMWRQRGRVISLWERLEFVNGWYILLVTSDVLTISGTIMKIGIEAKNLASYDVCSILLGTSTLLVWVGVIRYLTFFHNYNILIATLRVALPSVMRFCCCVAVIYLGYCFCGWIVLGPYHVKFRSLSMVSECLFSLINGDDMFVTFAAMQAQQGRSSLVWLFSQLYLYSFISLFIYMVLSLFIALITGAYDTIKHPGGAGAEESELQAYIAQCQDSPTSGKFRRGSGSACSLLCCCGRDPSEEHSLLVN

Row | EC50 [2, 3] | Compound | EC50 [1] | EC50 [2]
1 | 10 to 1000 nM | CCc1oc(N2CC(CC)(OC)C2)nc1C(=O)Nc1ccc(OC2CC3CC(C3)C2)c(F)c1 (stereo not shown) [Example 228, N-(4-(bicyclo[3.1.1]heptan-3-yloxy)-3-fluorophenyl)-5-ethyl-2-(3-ethyl-3-methoxyazetidin-1-yl)oxazole-4-carboxamide] | 10 to 1000 nM | –
2 | 10 to 1000 nM | CCc1oc(N2CCCC2)nc1C(=O)Nc1cc(F)c(OC2CC3CC(C3)C2)c(F)c1 (stereo not shown) [Example 229, N-(4-(bicyclo[3.1.1]heptan-3-yloxy)-3,5-difluorophenyl)-5-ethyl-2-(pyrrolidin-1-yl)oxazole-4-carboxamide] | 10 to 1000 nM | –
3 | 10 to 1000 nM | CCc1oc(N2CC(CC)(OC)C2)nc1C(=O)Nc1cc(F)c(OC2CC3CC(C3)C2)c(F)c1 (stereo not shown) [Example 230, N-(4-(bicyclo[3.1.1]heptan-3-yloxy)-3,5-difluorophenyl)-5-ethyl-2-(3-ethyl-3-methoxyazetidin-1-yl)oxazole-4-carboxamide] | 10 to 1000 nM | –
4 | 10 to 1000 nM | CCc1oc(N2CCC3(CC3)C2)nc1C(=O)Nc1cc(F)c(O[C@@H]2C[C@@H]3C[C@@H]3C2)c(F)c1 [Example 235, N-(4-(cis-bicyclo[3.1.0]hexan-3-yloxy)-3,5-difluorophenyl)-5-ethyl-2-(5-azaspiro[2.4]heptan-5-yl)oxazole-4-carboxamide] | 10 to 1000 nM | –
5 | 10 to 1000 nM | CCc1oc(N2CC(CC)(OC)C2)nc1C(=O)Nc1cc(F)c(O[C@@H]2C[C@@H]3C[C@@H]3C2)c(F)c1 [Example 238, N-(4-(cis-bicyclo[3.1.0]hexan-3-yloxy)-3,5-difluorophenyl)-5-ethyl-2-(3-ethyl-3-methoxyazetidin-1-yl)oxazole-4-carboxamide] | 10 to 1000 nM | –
6 | 10 to 1000 nM | CCc1oc(N2CC(C)(OC)C2)nc1C(=O)Nc1cc(F)c(O[C@@H]2C[C@@H]3C[C@@H]3C2)c(F)c1 [Example 239, N-(4-(cis-bicyclo[3.1.0]hexan-3-yloxy)-3,5-difluorophenyl)-5-ethyl-2-(3-methoxy-3-methylazetidin-1-yl)oxazole-4-carboxamide] | 10 to 1000 nM | –
7 | 10 to 1000 nM | CCc1oc(N2CC3CCCC3C2)nc1C(=O)Nc1cc(F)c(OC2CC3C[C@H]3C2)c(F)c1 (stereo partly drawn) [Example 240, N-(4-(cis-bicyclo[3.1.0]hexan-3-yloxy)-3,5-difluorophenyl)-5-ethyl-2-(hexahydrocyclopenta[c]pyrrol-2(1H)-yl)oxazole-4-carboxamide] | 10 to 1000 nM | –
8 | 10 to 1000 nM | CCc1oc(N2CC3CCC3C2)nc1C(=O)Nc1cc(F)c(OC2CC3C[C@H]3C2)c(F)c1 (stereo partly drawn) [Example 241, N-(4-(cis-bicyclo[3.1.0]hexan-3-yloxy)-3,5-difluorophenyl)-2-(3-azabicyclo[3.2.0]heptan-3-yl)-5-ethyloxazole-4-carboxamide] | 10 to 1000 nM | –
9 | 10 to 1000 nM | CCc1oc(N2CCCC2)nc1C(=O)Nc1cc(F)c(O[C@@H]2C[C@@H]3C[C@@H]3C2)c(F)c1 [Example 244, N-(4-(cis-bicyclo[3.1.0]hexan-3-yloxy)-3,5-difluorophenyl)-5-ethyl-2-(pyrrolidin-1-yl)oxazole-4-carboxamide] | 10 to 1000 nM | –
10 | 10 to 1000 nM | CCc1oc(N2CC(CC)(CC)C2)nc1C(=O)Nc1ccc(O[C@@H]2C[C@@H]3C[C@@H]3C2)c(F)c1 [Example 245, N-(4-(cis-bicyclo[3.1.0]hexan-3-yloxy)-3-fluorophenyl)-2-(3,3-diethylazetidin-1-yl)-5-ethyloxazole-4-carboxamide] | 10 to 1000 nM | –
11 | 10 to 1000 nM | CCc1oc(N2CC3CCC3C2)nc1C(=O)Nc1ccc(OC2CC3C[C@H]3C2)c(F)c1 (stereo partly drawn) [Example 247, N-(4-(cis-bicyclo[3.1.0]hexan-3-yloxy)-3-fluorophenyl)-2-(3-azabicyclo[3.2.0]heptan-3-yl)-5-ethyloxazole-4-carboxamide] | 10 to 1000 nM | –
12 | 10 to 1000 nM | CCc1oc(N2CC(C)(OC)C2)nc1C(=O)Nc1ccc(O[C@@H]2C[C@@H]3C[C@@H]3C2)c(Cl)c1 [Example 249, N-(4-(cis-bicyclo[3.1.0]hexan-3-yloxy)-3-chlorophenyl)-5-ethyl-2-(3-methoxy-3-methylazetidin-1-yl)oxazole-4-carboxamide] | 10 to 1000 nM | –
13 | – | CCc1oc(N2CC(CC)(OC)C2)nc1C(=O)Nc1cc(F)c(N2CC3CC(C3)C2)c(F)c1 [Example 254, N-(4-(3-azabicyclo[3.1.1]heptan-3-yl)-3,5-difluorophenyl)-5-ethyl-2-(3-ethyl-3-methoxyazetidin-1-yl)oxazole-4-carboxamide] | 10 to 1000 nM | 10 to 1000 nM
14 | – | CCc1oc(N2CCCC2)nc1C(=O)Nc1cc(F)c(N2CC3CC(C3)C2)c(F)c1 [Example 255, N-(4-(3-azabicyclo[3.1.1]heptan-3-yl)-3,5-difluorophenyl)-5-ethyl-2-(pyrrolidin-1-yl)oxazole-4-carboxamide] | 10 to 1000 nM | 10 to 1000 nM
15 | – | CCc1oc(N2CC(C)(C)C2)nc1C(=O)Nc1cc(F)c(N2CC3CC(C3)C2)c(F)c1 [Example 256, N-(4-(3-azabicyclo[3.1.1]heptan-3-yl)-3,5-difluorophenyl)-2-(3,3-dimethylazetidin-1-yl)-5-ethyloxazole-4-carboxamide] | 10 to 1000 nM | 10 to 1000 nM
16 | 10 to 1000 nM | CCC1(CC)CN(c2nc(C(=O)Nc3cc(C)c(OC4CC5CC(C5)C4)c(O)c3)c(CC(F)(F)F)o2)C1 (stereo not shown) [Example 260, N-(4-(bicyclo[3.1.1]heptan-3-yloxy)-3-hydroxy-5-methylphenyl)-2-(3,3-diethylazetidin-1-yl)-5-(2,2,2-trifluoroethyl)oxazole-4-carboxamide] | 10 to 1000 nM | –
17 | 10 to 1000 nM | CCC1(CC)CN(c2nc(C(=O)Nc3cc(O)c(OC4CC5CC(C5)C4)c(Cl)c3)c(CC(F)(F)F)o2)C1 (stereo not shown) [Example 261, N-(4-(bicyclo[3.1.1]heptan-3-yloxy)-3-chloro-5-hydroxyphenyl)-2-(3,3-diethylazetidin-1-yl)-5-(2,2,2-trifluoroethyl)oxazole-4-carboxamide] | 10 to 1000 nM | –
18 | 10 to 1000 nM | CCC1(CC)CN(c2nc(C(=O)Nc3cc(C)c(O[C@@H]4C[C@@H]5C[C@@H]5C4)c(O)c3)c(CC(F)(F)F)o2)C1 [Example 262, N-(4-(cis-bicyclo[3.1.0]hexan-3-yloxy)-3-hydroxy-5-methylphenyl)-2-(3,3-diethylazetidin-1-yl)-5-(2,2,2-trifluoroethyl)oxazole-4-carboxamide] | 10 to 1000 nM | –
19 | 10 to 1000 nM | CCC1(CC)CN(c2nc(C(=O)Nc3cc(O)c(OC4CC5CC(C5)C4)c(F)c3)c(CC(F)(F)F)o2)C1 (stereo not shown) [Example 264, N-(4-(bicyclo[3.1.1]heptan-3-yloxy)-3-fluoro-5-hydroxyphenyl)-2-(3,3-diethylazetidin-1-yl)-5-(2,2,2-trifluoroethyl)oxazole-4-carboxamide] | 10 to 1000 nM | –
20 | 10 to 1000 nM | CCC1(CC)CN(c2nc(C(=O)Nc3cc(O)c(O[C@@H]4C[C@@H]5C[C@@H]5C4)c(F)c3)c(CC(F)(F)F)o2)C1 [Example 269, N-(4-(cis-bicyclo[3.1.0]hexan-3-yloxy)-3-fluoro-5-hydroxyphenyl)-2-(3,3-diethylazetidin-1-yl)-5-(2,2,2-trifluoroethyl)oxazole-4-carboxamide] | 10 to 1000 nM | –
21 | – | COC1(C)CN(c2nc(C(=O)Nc3cc(O)c(N4C5CCCC4CC5)c(F)c3)c(CC(F)(F)F)o2)C1 [Example 272, N-(4-(8-azabicyclo[3.2.1]octan-8-yl)-3-fluoro-5-hydroxyphenyl)-2-(3-methoxy-3-methylazetidin-1-yl)-5-(2,2,2-trifluoroethyl)oxazole-4-carboxamide] | 10 to 1000 nM | 10 to 1000 nM
22 | 10 to 1000 nM | CCCc1oc(N2CCC3CCCC32)nc1C(=O)Nc1cc(F)c(OC2CC3C[C@H]3C2)c(F)c1 (stereo partly drawn) [Example 275, N-(4-(cis-bicyclo[3.1.0]hexan-3-yloxy)-3,5-difluorophenyl)-2-(hexahydrocyclopenta[b]pyrrol-1(2H)-yl)-5-propyloxazole-4-carboxamide] | 10 to 1000 nM | –
23 | 10 to 1000 nM | COC1(C)CN(c2nc(C(=O)Nc3cc(F)c(O[C@@H]4C[C@@H]5C[C@@H]5C4)c(F)c3)c(CCF)o2)C1 [Example 276, N-(4-(cis-bicyclo[3.1.0]hexan-3-yloxy)-3,5-difluorophenyl)-5-(2-fluoroethyl)-2-(3-methoxy-3-methylazetidin-1-yl)oxazole-4-carboxamide] | 10 to 1000 nM | –
24 | 10 to 1000 nM | CCC1(OC)CN(c2nc(C(=O)Nc3cc(C)c(OC4CC5CC(C5)C4)c(F)c3)c(CCF)o2)C1 (stereo not shown) [Example 277, N-(4-(bicyclo[3.1.1]heptan-3-yloxy)-3-fluoro-5-methylphenyl)-2-(3-ethyl-3-methoxyazetidin-1-yl)-5-(2-fluoroethyl)oxazole-4-carboxamide] | 10 to 1000 nM | –
25 | 10 to 1000 nM | Cc1cc(NC(=O)c2nc(N3CCCC3)oc2CCF)cc(F)c1OC1CC2CC(C2)C1 (stereo not shown) [Example 278, N-(4-(bicyclo[3.1.1]heptan-3-yloxy)-3-fluoro-5-methylphenyl)-5-(2-fluoroethyl)-2-(pyrrolidin-1-yl)oxazole-4-carboxamide] | 10 to 1000 nM | –

Row | Compound | EC50 [2, 3] | EC50 [1] | EC50 [2]
26 | CCc1oc(N2CC3(C2)CC(F)(F)C3)nc1C(=O)Nc1cc(F)c(N2CC3CC(C3)C2)c(F)c1 [Example 259, N-(4-(3-azabicyclo[3.1.1]heptan-3-yl)-3,5-difluorophenyl)-2-(6,6-difluoro-2-azaspiro[3.3]heptan-2-yl)-5-ethyloxazole-4-carboxamide] | 1000 to 10000 nM | 10 to 1000 nM | –

From US12098145B2 (Libra Therapeutics, Inc., priority 2022, dated 2024)
